According to patent US20240199558A1, “2,4,6-TRISUBSTITUTED 1,3,5-TRIAZINES AS MODULATORS OF CX3CR1” (ASTRAZENECA AB, priority 2022, published 2024):

target: CX3CR1 (Homo sapiens (Human), UniProt P49238); test: hCX3CR1 [3H]-AZD8797 competitive binding assay (filter); settings: CHO-hCX3CR1 membranes, 2 nM [3H]-AZD8797
In short: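 Filtration radioligand displacement assay: competitor titrations compete with 2 nM [3H]-AZD8797 for membranes from CHO cells expressing hCX3CR1 (9 μg/well). Incubation was 2 h at room temperature in HEPES pH 7.4 with MgCl2, CaCl2, 0.5% BSA and 1% DMSO. Filters were washed with ice-cold high-salt (500 mM NaCl) buffer, and retained radioactivity was scintillation-counted.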

CX3CR1, sequence (P49238 whole entry): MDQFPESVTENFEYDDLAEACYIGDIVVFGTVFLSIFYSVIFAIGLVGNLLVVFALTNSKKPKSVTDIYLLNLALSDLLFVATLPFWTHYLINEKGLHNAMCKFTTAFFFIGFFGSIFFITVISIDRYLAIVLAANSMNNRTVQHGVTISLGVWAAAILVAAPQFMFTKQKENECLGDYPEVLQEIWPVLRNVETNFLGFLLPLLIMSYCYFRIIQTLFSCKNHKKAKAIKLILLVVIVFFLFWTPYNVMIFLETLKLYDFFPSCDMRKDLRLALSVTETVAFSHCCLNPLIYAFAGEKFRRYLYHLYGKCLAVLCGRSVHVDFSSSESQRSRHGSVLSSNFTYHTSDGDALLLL

| IC50 [nM] | Compound |
| --- | --- |
| 45 | Cc1ccc(C(C)Cc2nc(N[C@@H](CO)CC(C)C)nc(NS(C)(=O)=O)n2)cc1N (stereo partly drawn) [Example 114, N-(4-(2-(3-Amino-4-methylphenyl)propyl)-6-(((R)-1-hydroxy-4-methylpentan-2-yl)amino)-1,3,5-triazin-2-yl)methanesulfonamide] |
| 160 | CC(C)C[C@H](CO)Nc1nc(CC(C)c2ccc(OCCN3CCOCC3)cc2)nc(NS(C)(=O)=O)n1 (stereo partly drawn) [Example 115, N-(4-(((R)-1-Hydroxy-4-methylpentan-2-yl)amino)-6-(2-(4-(2-morpholinoethoxy)phenyl)propyl)-1,3,5-triazin-2-yl)methanesulfonamide] |
| 282 | CC(C)C[C@H](CO)Nc1nc(CC(C)c2ccc(C(=O)N(C)C)c(F)c2)nc(NS(C)(=O)=O)n1 (stereo partly drawn) [Example 116, 2-Fluoro-4-(1-(4-(((R)-1-hydroxy-4-methylpentan-2-yl)amino)-6-(methylsulfonamido)-1,3,5-triazin-2-yl)propan-2-yl)-N,N-dimethylbenzamide] |
| 78 | CC(C)C[C@H](CO)Nc1nc(CC(C)c2cnc3c(ccn3C)c2)nc(NS(C)(=O)=O)n1 (stereo partly drawn) [Example 117, N-(4-(((R)-1-Hydroxy-4-methylpentan-2-yl)amino)-6-(2-(1-methyl-1H-pyrrolo[2,3-b]pyridin-5-yl)propyl)-1,3,5-triazin-2-yl)methanesulfonamide] |
| 150 | CC(C)C[C@H](CO)Nc1nc(CC(C)c2ccc(N3CCOCC3=O)cc2)nc(NS(C)(=O)=O)n1 (stereo partly drawn) [Example 118, N-(4-(((R)-1-Hydroxy-4-methylpentan-2-yl)amino)-6-(2-(4-(3-oxomorpholino)phenyl)propyl)-1,3,5-triazin-2-yl)methanesulfonamide] |
| 335 | CCOc1ccc(C(C)Cc2nc(N[C@@H](CO)CC(C)C)nc(NS(C)(=O)=O)n2)cc1F (stereo partly drawn) [Example 119] |
| 230 | CNC(=O)c1ccc(C(C)Cc2nc(N[C@@H](CO)CC(C)C)nc(NS(C)(=O)=O)n2)cc1F (stereo partly drawn) [Example 120, 2-Fluoro-4-(1-(4-(((R)-1-hydroxy-4-methylpentan-2-yl)amino)-6-(methylsulfonamido)-1,3,5-triazin-2-yl)propan-2-yl)-N-methylbenzamide] |
| 21 | CC(C)C[C@H](CO)Nc1nc(CC(C)c2cccc(N)c2)nc(NS(C)(=O)=O)n1 (stereo partly drawn) [Example 121, N-(4-(2-(3-Aminophenyl)propyl)-6-(((R)-1-hydroxy-4-methylpentan-2-yl)amino)-1,3,5-triazin-2-yl)methanesulfonamide] |
| 120 | CC(C)C[C@H](CO)Nc1nc(CC(C)c2ccc(F)c(CO)c2)nc(NS(C)(=O)=O)n1 (stereo partly drawn) [Example 122, N-(4-(2-(4-Fluoro-3-(hydroxymethyl)phenyl)propyl)-6-(((R)-1-hydroxy-4-methylpentan-2-yl)amino)-1,3,5-triazin-2-yl)methanesulfonamide] |
| 339 | CCOc1ccc(C(C)Cc2nc(N[C@@H](CO)CC(C)C)nc(NS(C)(=O)=O)n2)cc1 (stereo partly drawn) [Example 123, N-(4-(2-(4-Ethoxyphenyl)propyl)-6-(((R)-1-hydroxy-4-methylpentan-2-yl)amino)-1,3,5-triazin-2-yl)methanesulfonamide] |
| 126 | CC(C)C[C@H](CO)Nc1nc(CC(C)c2ccc3ncn(C)c(=O)c3c2)nc(NS(C)(=O)=O)n1 (stereo partly drawn) [Example 124, N-(4-(((R)-1-Hydroxy-4-methylpentan-2-yl)amino)-6-(2-(3-methyl-4-oxo-3,4-dihydroquinazolin-6-yl)propyl)-1,3,5-triazin-2-yl)methanesulfonamide] |
| 85 | CC(C)C[C@H](CO)Nc1nc(CC(C)c2cnc3c(c2)OCC(=O)N3C)nc(NS(C)(=O)=O)n1 (stereo partly drawn) [Example 125, N-(4-(((R)-1-Hydroxy-4-methylpentan-2-yl)amino)-6-(2-(4-methyl-3-oxo-3,4-dihydro-2H-pyrido[3,2-b][1,4]oxazin-7-yl)propyl)-1,3,5-triazin-2-yl)methanesulfonamide] |
| 257 | CC(C)C[C@H](CO)Nc1nc(CC(C)c2ccc3c(=O)n(C)cnc3c2)nc(NS(C)(=O)=O)n1 (stereo partly drawn) [Example 126, N-(4-(((R)-1-Hydroxy-4-methylpentan-2-yl)amino)-6-(2-(3-methyl-4-oxo-3,4-dihydroquinazolin-7-yl)propyl)-1,3,5-triazin-2-yl)methanesulfonamide] |
| 354 | CC(C)C[C@H](CO)Nc1nc(CC(C)c2ccc(OC(F)F)nc2)nc(NS(C)(=O)=O)n1 (stereo partly drawn) [Example 127, N-(4-(2-(6-(Difluoromethoxy)pyridin-3-yl)propyl)-6-(((R)-1-hydroxy-4-methylpentan-2-yl)amino)-1,3,5-triazin-2-yl)methanesulfonamide] |
| 241 | CC(C)C[C@H](CO)Nc1nc(CC(C)c2ccc3c(c2)CC(=O)N(C)C3)nc(NS(C)(=O)=O)n1 (stereo partly drawn) [Example 128, N-(4-(((R)-1-Hydroxy-4-methylpentan-2-yl)amino)-6-(2-(2-methyl-3-oxo-1,2,3,4-tetrahydroisoquinolin-6-yl)propyl)-1,3,5-triazin-2-yl)methanesulfonamide] |
| 169 | CC(C)C[C@H](CO)Nc1nc(CC(C)c2ccc3c(c2)OCC(=O)N3C)nc(NS(C)(=O)=O)n1 (stereo partly drawn) [Example 129, N-(4-(((R)-1-Hydroxy-4-methylpentan-2-yl)amino)-6-(2-(4-methyl-3-oxo-3,4-dihydro-2H-benzo[b][1,4]oxazin-7-yl)propyl)-1,3,5-triazin-2-yl)methanesulfonamide] |
| 79 | CC(C)C[C@H](CO)Nc1nc(CC(C)c2ccc3c(c2)CN(C)C(=O)C3)nc(NS(C)(=O)=O)n1 (stereo partly drawn) [Example 130, N-(4-(((R)-1-Hydroxy-4-methylpentan-2-yl)amino)-6-(2-(2-methyl-3-oxo-1,2,3,4-tetrahydroisoquinolin-7-yl)propyl)-1,3,5-triazin-2-yl)methanesulfonamide] |
| 639 | Cc1ncc(C(C)Cc2nc(N[C@@H](CO)CC(C)C)nc(NS(C)(=O)=O)n2)cc1N (stereo partly drawn) [Example 131, N-(4-(2-(5-Amino-6-methylpyridin-3-yl)propyl)-6-(((R)-1-hydroxy-4-methylpentan-2-yl)amino)-1,3,5-triazin-2-yl)methanesulfonamide] |
| 264 | CC(C)C[C@H](CO)Nc1nc(CC(C)c2ccc(CCO)nc2)nc(NS(C)(=O)=O)n1 (stereo partly drawn) [Example 132, N-(4-(((R)-1-Hydroxy-4-methylpentan-2-yl)amino)-6-(2-(6-(2-hydroxyethyl)pyridin-3-yl)propyl)-1,3,5-triazin-2-yl)methanesulfonamide] |
| 26 | CC(C)C[C@H](CO)Nc1nc(CC(C)c2ccc(CO)c(F)c2)nc(NS(C)(=O)=O)n1 (stereo partly drawn) [Example 133, N-(4-(2-(3-Fluoro-4-(hydroxymethyl)phenyl)propyl)-6-(((R)-1-hydroxy-4-methylpentan-2-yl)amino)-1,3,5-triazin-2-yl)methanesulfonamide] |
| 203 | CC(C)C[C@H](CO)Nc1nc(CC(C)c2cnc3ccccc3c2)nc(NS(C)(=O)=O)n1 (stereo partly drawn) [Example 134, N-(4-(((R)-1-Hydroxy-4-methylpentan-2-yl)amino)-6-(2-(quinolin-3-yl)propyl)-1,3,5-triazin-2-yl)methanesulfonamide] |
| 104 | CC(C)C[C@H](CO)Nc1nc(CC(C)c2cccc(F)c2O)nc(NS(C)(=O)=O)n1 (stereo partly drawn) [Example 135, N-(4-(2-(3-Fluoro-2-hydroxyphenyl)propyl)-6-(((R)-1-hydroxy-4-methylpentan-2-yl)amino)-1,3,5-triazin-2-yl)methanesulfonamide] |
| 16 | CC(C)C[C@H](CO)Nc1nc(CC(C)c2ccc(N)c(F)c2)nc(NS(C)(=O)=O)n1 (stereo partly drawn) [Example 136, N-(4-(2-(4-Amino-3-fluorophenyl)propyl)-6-(((R)-1-hydroxy-4-methylpentan-2-yl)amino)-1,3,5-triazin-2-yl)methanesulfonamide] |
| 321 | CC(C)C[C@H](CO)Nc1nc(CC(C)c2cccc(Cl)c2O)nc(NS(C)(=O)=O)n1 (stereo partly drawn) [Example 137, N-(4-(2-(3-Chloro-2-hydroxyphenyl)propyl)-6-(((R)-1-hydroxy-4-methylpentan-2-yl)amino)-1,3,5-triazin-2-yl)methanesulfonamide] |
| 119 | CC(C)C[C@H](CO)Nc1nc(CC(C)c2ccc(CCN3CCOCC3)cc2)nc(NS(C)(=O)=O)n1 (stereo partly drawn) [Example 138, N-(4-(((R)-1-Hydroxy-4-methylpentan-2-yl)amino)-6-(2-(4-(2-morpholinoethyl)phenyl)propyl)-1,3,5-triazin-2-yl)methanesulfonamide] |
| 469 | COc1cccc(C(C)Cc2nc(N[C@@H](CO)CC(C)C)nc(NS(C)(=O)=O)n2)c1O (stereo partly drawn) [Example 139, N-(4-(2-(2-Hydroxy-3-methoxyphenyl)propyl)-6-(((R)-1-hydroxy-4-methylpentan-2-yl)amino)-1,3,5-triazin-2-yl)methanesulfonamide] |
| 175 | CC(C)C[C@H](CO)Nc1nc(CC(C)c2ccc(OC(C)C)c(F)c2)nc(NS(C)(=O)=O)n1 (stereo partly drawn) [Example 140, N-(4-(2-(3-Fluoro-4-isopropoxyphenyl)propyl)-6-(((R)-1-hydroxy-4-methylpentan-2-yl)amino)-1,3,5-triazin-2-yl)methanesulfonamide] |
| 173 | CC(C)C[C@H](CO)Nc1nc(CC(C)c2ccc(C#N)c(F)c2)nc(NS(C)(=O)=O)n1 (stereo partly drawn) [Example 141, N-(4-(2-(4-Cyano-3-fluorophenyl)propyl)-6-(((R)-1-hydroxy-4-methylpentan-2-yl)amino)-1,3,5-triazin-2-yl)methanesulfonamide] |
| 110 | CC(C)C[C@H](CO)Nc1nc(CC(C)c2ccc(F)cc2O)nc(NS(C)(=O)=O)n1 (stereo partly drawn) [Example 142, N-(4-(2-(4-Fluoro-2-hydroxyphenyl)propyl)-6-(((R)-1-hydroxy-4-methylpentan-2-yl)amino)-1,3,5-triazin-2-yl)methanesulfonamide] |
| 493 | CC(C)C[C@H](CO)Nc1nc(CC(c2ccccc2)C(F)(F)F)nc(NS(C)(=O)=O)n1 (stereo partly drawn) [Example 151, N-(4-(((R)-1-Hydroxy-4-methylpentan-2-yl)amino)-6-(3,3,3-trifluoro-2-phenylpropyl)-1,3,5-triazin-2-yl)methanesulfonamide] |
